{"source": "patent US20060189624A1", "about": "“Novel combination for treating sexual dysfunction” (Bayer Aktiengesellschaft, priority 1999, published 2006)", "test_system": "adult male rabbits of the animal strain HsdHHL Watanables", "experiment": "Erection (length of the protruding penis) in hypercholesterolemic rabbits after cGMP PDE inhibitor, with or without antilipemic pretreatment", "type": "in vivo, rabbit", "conditions": "cerivastatin sodium 1 mg/kg s.c. for 7 days", "procedure": "In a placebo-controlled study, twelve adult male rabbits of the animal strain HsdHHL Watanables having a body weight of 3-5 kg, which, owing to breeding, suffer from hypercholesterolemia and arteriosclerosis, were treated with a selective cGMP PDE inhibitor (3 mg/kg, intravenously).\nThe animals had free access to water and, for 2 hours per day, to feed. The animals were kept in a 10/14 hour day/night rhythm (light on from 8 am onwards), and the ambient temperature was 22 to 24° C.\nThe selective cGMP PDE inhibitor used was 2-[2-ethoxy-5-(4-ethyl-piperazine-1-sulfonyl)-phenyl]-5-methyl-7-propyl-3H-imidazo[5,1-f][1,2,4]triazin-4-one hydrochloride trihydrate (Ex. 336 of WO-A-99/24433).\nFor intravenous injection, the PDE inhibitor was dissolved in physiological saline (0.9% by volume).\nFor seven days prior to the treatment with the PDE inhibitor, i.e. for 7 successive days, an antilipemic, i.e. cerivastatin sodium (i.e. the monosodium salt of cerivastatin) was administered subcutaneously to six of the twelve rabbits (1 mg/kg of body weight, cerivastatin sodium dissolved in physiological saline). […]\nThe erection was evaluated by measuring the length of the protruding penis using a vernier caliper. […] To this end, the animals were in each case removed from the cage, held by neck hair and hind legs, turned onto their back and measured. […]", "data": [{"molecule": "COCc1c(C(C)C)nc(C(C)C)c(/C=C/[C@@H](O)C[C@@H](O)CC(=O)O)c1-c1ccc(F)cc1", "note": "[cerivastatin sodium]", "values": [{"measurement": "erection 1 day after the cerivastatin sodium pretreatment had ended compared with 3 days after (FIG. 2, upper vs middle curve)", "setting": "then PDE inhibitor 3 mg/kg i.v., 1 day vs 3 days after end of pretreatment", "value": "still more pronounced"}, {"measurement": "erection after administration of the PDE inhibitor, compared with rabbits not pretreated with the antilipemic (FIG. 2)", "setting": "then PDE inhibitor (Ex. 336 of WO-A-99/24433) 3 mg/kg i.v. 1 day and 3 days after pretreatment ended, measured 5-120 min, control saline pretreatment", "value": "considerably more pronounced erection"}]}]}
